# Target: T1, human B1R (Homo sapiens, UniProt P46663)
# T1 construct: host or cells: HEK293
# T1 sequence (P46663 1-353): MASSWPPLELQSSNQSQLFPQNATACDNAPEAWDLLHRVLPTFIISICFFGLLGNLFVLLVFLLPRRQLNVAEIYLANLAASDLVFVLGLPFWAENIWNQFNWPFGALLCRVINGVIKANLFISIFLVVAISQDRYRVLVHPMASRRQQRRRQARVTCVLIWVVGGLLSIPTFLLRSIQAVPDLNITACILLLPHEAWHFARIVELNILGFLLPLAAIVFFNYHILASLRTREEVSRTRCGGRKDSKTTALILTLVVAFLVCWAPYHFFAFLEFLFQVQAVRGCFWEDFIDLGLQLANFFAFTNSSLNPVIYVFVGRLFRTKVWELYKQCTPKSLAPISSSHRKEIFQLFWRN
# Assay: FLIPR calcium ion flux assay, inhibitory activity against human B1R
# Type: cell-based
# Settings: HEK293 cells stably expressing human B1R; agonist [Lys-des-Arg9]-Bradykinin 4.6 nM (EC80); FLIPR method
# Description: The inhibitory activity of the compounds against human B1R and B2R channels was determined by calcium ion flux assay using fluorometric imaging plate reader (FLIPR method). See literatures of Lee, Chen et al. for the method. [Lee et al. 2008][Chen et al. 2011]
# 1. Cell culture: HEK293 recombinant cell lines (WuXi AppTec, Shanghai, China) stably expressing human B1R and B2R were cultured in DMEM (Invitrogen, Cat #11965) medium containing 10% calf serum (Excellbio, Cat #FSP500), 5 μg/ml Geneticin (Invitrogen, Cat #10131) and Penicillin/Streptomycin (Invitrogen, Cat #15140). The incubator conditions were 37° C. and ambient humidity containing 5% CO2.
# 2. Preparation of the cell assay plate: B1R and B2R cells were seeded in a 384-well assay plate (Greiner, Cat #781090) at a density of 20,000 cells per well (20 μl/well), and cultured overnight at 37° C. in an incubator with 5% CO2. The next day, Fluo-4 Direct™ Loading Buffer (containing 5 mM Probenicid) containing 2× (8 μM) Fluo-4 Direct (Invitrogen, Cat #F10471) was added to each of the wells. The cells were cultured at 37° C. for 50 min, and then culture for at the room temperature 10 min.
# 3. Preparation of the compound assay plate: The compound was dissolved in 100% DMSO to make a 30 mM stock solution and stored at −20° C. On the day of use, the stock solution of the compound was thawed at the room temperature. Each of the compounds was serially diluted at 1:5 in DMSO culture medium with a starting concentration of 30 μM for 9 concentration points on a 384-well plate. Each of compounds was diluted in duplicate for testing. [Des-Arg10]-HOE140 was used as a positive control compound, and diluted in the same manner with a starting concentration of 3 μM.
# 4. FLIPR assay: The cell assay plate was placed in a FLIPR instrument ([…]). The compounds in the compound assay plate were added to the corresponding wells on the cell assay plate (10 μL/well) using an automatic program. The calcium ion fluorescence signal was recorded to determine whether the compound may have agonist activity. After 10 minutes, a B1R agonist [Lys-des-Arg9]-Bradykinin2 (10 μL/well) with a final concentration of 4.6 nM (EC80) was added to each of the wells to stimulate the generation of intracellular calcium ion flux signals. The Ca^++-dependent fluorescence signal was continuously monitored at a wavelength of 538 nm to analyze the inhibitory activity of the compound.
# 5. Data analysis: The data was collected and analyzed by a FLIPR program. The inhibitory (or agonist) activity of the compound at each concentration was evaluated by the fluorescence peak. The IC50 values of the compounds were calculated using EXCEL and PRISM programs.
row,IC50,Compound
1,109 nM,"CC(C)(C)C1CCN(C(=O)Nc2ccc(-c3ccc(C(F)F)nc3)c(-c3nn[nH]n3)c2)CC1 [Compound 42, 4-(tert-butyl)-N-(4-(6-(difluoromethyl)pyrid-3-yl)-3-(2H-tetrazol-5-yl)phenyl)piperidine-1-carboxamide]"
2,25.7 nM,"Cn1ncc2cc(-c3ccc(NC(=O)N4CCC(C(F)(F)F)CC4)cc3-c3nn[nH]n3)ccc21 [Compound 27, N-(4-(1-methyl-1H-indazol-5-yl)-3-(2H-tetrazol-5-yl)phenyl)-4-(trifluoromethyl)piperidine-1-carboxamide]"
3,8.1 nM,"CC(C)(C)c1cn(-c2c(F)cc(NC(=O)N3CCC(C(C)(C)C)CC3)cc2-c2nn[nH]n2)cn1 [Compound 57, 4-(tert-butyl)-N-(4-(4-(tert-butyl)-1H-imidazol-1-yl)-3-fluoro-5-(2H-tetrazol-5-yl)phenyl)piperidine-1-carboxamide]"
4,9.6 nM,"CC(C)Oc1ccc(-c2ccc(NC(=O)N3CCC(C(C)(C)C)CC3)cc2-c2nn[nH]n2)cn1 [Compound 49, 4-(tert-butyl)-N-(4-(6-isopropoxypyrid-3-yl)-3-(2H-tetrazol-5-yl)phenyl)piperidine-1-carboxamide]"
5,9900 nM,"COc1ccc(Oc2ccc(NC(=O)N[C@H]3CC[C@H](C)CC3)cc2-c2nn[nH]n2)cc1OC [Compound 64, 1-(4-(3,4-dimethoxyphenoxy)-3-(2H-tetrazol-5-yl)phenyl)-3-((trans)-4-methylcyclohexyl)urea]"
6,83.7 nM,"CC(C)(C)C1CCN(C(=O)Nc2cnc(C(=O)OC3CCCCC3)c(-c3nn[nH]n3)c2)CC1 [Compound 38, cyclohexyl 5-(4-(tert-butyl)piperidine-1-formamido)-3-(2H-tetrazol-5-yl)pyridylcarboxylate]"
7,7.6 nM,"CC(C)Oc1ccc(-c2c(F)cc(NC(=O)N3CCC(C(C)(C)C)CC3)cc2-c2nn[nH]n2)cn1 [Compound 56, 4-(tert-butyl)-N-(3-fluoro-4-(6-isopropoxypyrid-3-yl)-5-(2H-tetrazol-5-yl)phenyl)piperidine-1-carboxamide]"
8,21.4 nM,"Cn1ncc2cc(-c3c(F)cc(NC(=O)N4CCC(C(F)(F)F)CC4)cc3-c3nn[nH]n3)ccc21 [Compound 34, N-(3-fluoro-4-(1-methyl-1H-indazol-5-yl)-5-(2H-tetrazol-5-yl)phenyl)-4-(trifluoromethyl)piperidine-1-carboxamide]"
9,21.1 nM,"CC1CCN(C(=O)Nc2ccc(-c3ccc4c(cnn4C)c3)c(-c3nn[nH]n3)c2)CC1 [Compound 21, 4-methyl-N-(4-(1-methyl-1H-indazol-5-yl)-3-(2H-tetrazol-5-yl)phenyl)piperidine-1-carboxamide]"
10,4910 nM,"C[C@H]1CC[C@H](NC(=O)Nc2ccc(-c3ccc4c(c3)OCO4)c(-c3nn[nH]n3)c2)CC1 [Compound 69, 1-(4-(benzo[d][1,3]dioxolan-5-yl)-3-(2H-tetrazol-5-yl)phenyl)-3-((trans)-4-methylcyclohexyl)urea]"
11,26.2 nM,"COc1ccc(-c2ccc(NC(=O)N3CCC(C(C)(C)C)CC3)cc2-c2nn[nH]n2)cc1C [Compound 13, 4-(tert-butyl)-N-(4′-methoxy-3′-methyl-2-(2H-tetrazol-5-yl)-[1,1′-biphenyl]-4-yl)piperidine-1-carboxamide]"
12,92.2 nM,"COc1ccc(-c2ccc(NC(=O)N[C@H]3CC[C@@H](C)CC3)cc2-c2nn[nH]n2)cc1OC [Compound 61, 1-(3′,4′-dimethoxy-2-(2H-tetrazol-5-yl)-[1,1′-biphenyl]-4-yl)-3-(4-methylcyclohexyl)urea]"
13,92.9 nM,"COc1ccc(-c2ncc(NC(=O)N3CCC(C(C)(C)C)CC3)cc2-c2nn[nH]n2)cc1OC [Compound 35, 4-(tert-butyl)-N-(6-(3,4-dimethoxyphenyl)-5-(2H-tetrazol-5-yl)pyrid-3-yl)piperidine-1-carboxamide]"
14,23.6 nM,"CCOc1ccc(-c2ccc(NC(=O)N3CCC(C(C)(C)C)CC3)cc2-c2nn[nH]n2)cn1 [Compound 6, 4-(tert-butyl)-N-(4-(6-ethoxypyrid-3-yl)-3-(2H-tetrazol-5-yl)phenyl)piperidine-1-carboxamide]"

# Source: patent US20250353835A1, “N-TETRAZOLYL ARYL UREA-BASED DERIVATIVES, PREPARATION METHOD THEREFOR, AND USE THEREOF” (Hangzhou Yirui Pharmaceutical Technology Co., Ltd, priority 2022, published 2025)
